ChEMBL document CHEMBL4831545, “Hormesis Effect of Berberine against Klebsiella pneumoniae Is Mediated by Up-Regulation of the Efflux Pump KmrA” (J Nat Prod, 2021)

Tests used:
Klebsiella pneumoniae [1] = experiment: Hormesis activity against overnight compound-treated Klebsiella pneumoniae assessed as increase in antibiotic MIC by measuring hygromycinMIC at 3 ug/ml incubated for 12 hrs by OD600 based analysis (reference value: 12.5 ug/ml); assay type: ADME, organism-based; settings: in vivo, dose 3 µg/ml
Enterobacter cloacae [2] = experiment: Hormesis activity against Enterobacter cloacae assessed as promotion of bacterial growth by measuring prolonged logarithmic growth phase at 3 to 6 ug/ml measured for 24 hrs by OD600 based analysis; assay type: organism-based; settings: in vivo, dose 3-6 µg/ml
Klebsiella pneumoniae [3] = experiment: Hormesis activity against Klebsiella pneumoniae assessed as increase in antibiotic MIC by measuring chloramphenicol MIC at 3 ug/ml incubated for 12 hrs by OD600 based analysis (reference value: 6.25 ug/ml); assay type: ADME, organism-based; settings: in vivo, dose 3 µg/ml
Klebsiella pneumoniae [4] = experiment: Hormesis activity against Klebsiella pneumonia assessed as promotion of delayed bacterial growth at 25 to 50 ug/ml measured for 24 hrs in presence of 1 ug/ml tetracycline by OD600 based analysis; assay type: organism-based; settings: in vivo, dose 25-50 µg/ml
Enterobacter cloacae [5] = experiment: Hormesis activity against overnight compound-treated Enterobacter cloacae assessed as increase in antibiotic MIC by measuring cefotaxime MIC at 3 ug/ml incubated for 12 hrs by OD600 based analysis (reference value: 1.5625 ug/ml); assay type: ADME, organism-based; settings: in vivo, dose 3 µg/ml
Klebsiella pneumoniae [6] = experiment: Hormesis activity against Klebsiella pneumonia assessed as promotion of bacterial growth by measuring prolonged logarithmic growth phase at 3 to 6 ug/ml measured for 24 hrs in presence of 1 ug/ml tetracycline by OD600 based analysis; assay type: organism-based; settings: in vivo, dose 3-6 µg/ml
Enterobacter cloacae [7] = experiment: Hormesis activity against Enterobacter cloacae assessed as increase in antibiotic MIC by measuring streptomycin MIC at 3 ug/ml incubated for 12 hrs by OD600 based analysis (reference value: 12.5 ug/ml); assay type: ADME, organism-based; settings: in vivo, dose 3 µg/ml
Klebsiella pneumoniae [8] = experiment: Hormesis activity against Klebsiella pneumoniae deficient in KmrA gene expression assessed as increase in antibiotic MIC by measuring ampicillin MIC at 3 ug/ml incubated for 12 hrs by OD600 based analysis (reference value: 12.5 ug/ml); assay type: ADME, organism-based; settings: in vivo, dose 3 µg/ml
Enterobacter cloacae [9] = experiment: Hormesis activity against overnight compound-treated Enterobacter cloacae assessed as increase in antibiotic MIC by measuring azithromycin MIC at 3 ug/ml incubated for 12 hrs by OD600 based analysis (reference value: 6.25 ug/ml); assay type: ADME, organism-based; settings: in vivo, dose 3 µg/ml
[10] = Upregulation of KmrA promoter activity in Klebsiella pneumoniae assessed as increase in beta-galactosidase activity at 3 ug/ml by LacZ based OD600 analysis relative to control; assay type: ADME; settings: dose 3 µg/ml
Klebsiella pneumoniae [11] = experiment: Hormesis activity against Klebsiella pneumoniae deficient in KmrA gene expression assessed as increase in antibiotic MIC by measuring meropenem MIC at 3 ug/ml incubated for 12 hrs by OD600 based analysis (reference value: 0.39625 ug/ml); assay type: ADME, organism-based; settings: in vivo, dose 3 µg/ml
Klebsiella pneumoniae [12] = experiment: Hormesis activity against Klebsiella pneumonia deficient in KmrA gene expression assessed as promotion of bacterial growth at 3 to 6 ug/ml measured for 24 hrs by OD600 based analysis; assay type: organism-based; settings: in vivo, dose 3-6 µg/ml
Acinetobacter baumannii [13] = experiment: Hormesis activity against Acinetobacter baumannii assessed as increase in antibiotic MIC by measuring hygromycinMIC at 3 ug/ml incubated for 12 hrs by OD600 based analysis (reference value: 125 ug/ml); assay type: ADME, organism-based; settings: in vivo, dose 3 µg/ml
Enterobacter cloacae [14] = experiment: Hormesis activity against Enterobacter cloacae assessed as promotion of bacterial growth up to 25 ug/ml measured for 24 hrs in presence of 8 ug/ml tetracycline by OD600 based analysis; assay type: organism-based; settings: in vivo, dose <=25 µg/ml
Klebsiella pneumoniae [15] = experiment: Hormesis activity against Klebsiella pneumoniae assessed as increase in antibiotic MIC by measuring ampicillin MIC at 3 ug/ml incubated for 12 hrs by OD600 based analysis (reference value: 12.5 ug/ml); assay type: ADME, organism-based; settings: in vivo, dose 3 µg/ml
Klebsiella pneumoniae [16] = experiment: Hormesis activity against Klebsiella pneumoniae deficient in KmrA gene expression assessed as increase in antibiotic MIC by measuring azithromycin MIC at 3 ug/ml incubated for 12 hrs by OD600 based analysis (reference value: 0.78125 ug/ml); assay type: ADME, organism-based; settings: in vivo, dose 3 µg/ml
Klebsiella pneumoniae [17] = experiment: Hormesis activity against Klebsiella pneumoniae assessed as increase in antibiotic MIC by measuring rifampicin MIC at 3 ug/ml incubated for 12 hrs by OD600 based analysis (reference value: 25 ug/ml); assay type: ADME, organism-based; settings: in vivo, dose 3 µg/ml
Acinetobacter baumannii [18] = experiment: Hormesis activity against Acinetobacter baumannii assessed as increase in antibiotic MIC by measuring ampicillin MIC at 3 ug/ml incubated for 12 hrs by OD600 based analysis (reference value: 100 ug/ml); assay type: ADME, organism-based; settings: in vivo, dose 3 µg/ml
Acinetobacter baumannii [19] = experiment: Hormesis activity against Acinetobacter baumannii assessed as increase in antibiotic MIC by measuring cefotaxime MIC at 3 ug/ml incubated for 12 hrs by OD600 based analysis (reference value: 12.5 ug/ml); assay type: ADME, organism-based; settings: in vivo, dose 3 µg/ml
Acinetobacter baumannii [20] = experiment: Hormesis activity against overnight-compound treated Acinetobacter baumannii assessed as increase in antibiotic MIC by measuring hygromycinMIC at 3 ug/ml incubated for 12 hrs by OD600 based analysis (reference value: 125 ug/ml); assay type: ADME, organism-based; settings: in vivo, dose 3 µg/ml
Enterobacter cloacae [21] = experiment: Hormesis activity against Enterobacter cloacae assessed as increase in antibiotic MIC by measuring cefotaxime MIC at 3 ug/ml incubated for 12 hrs by OD600 based analysis (reference value: 1.5625 ug/ml); assay type: ADME, organism-based; settings: in vivo, dose 3 µg/ml
Enterobacter cloacae [22] = experiment: Hormesis activity against overnight compound-treated Enterobacter cloacae assessed as increase in antibiotic MIC by measuring streptomycin MIC at 3 ug/ml incubated for 12 hrs by OD600 based analysis (reference value: 12.5 ug/ml); assay type: ADME, organism-based; settings: in vivo, dose 3 µg/ml
Acinetobacter baumannii [23] = experiment: Hormesis activity against Acinetobacter baumannii assessed as promotion of bacterial growth at 3 to 50 ug/ml measured for 24 hrs in presence of efflux pump inhibitor, CCCP and 80 to 120 ug/ml tetracycline by OD600 based analysis; assay type: ADME, organism-based; settings: in vivo, dose 3-50 µg/ml
Enterobacter cloacae [24] = experiment: Hormesis activity against overnight compound-treated Enterobacter cloacae assessed as increase in antibiotic MIC by measuring ciprofloxacin MIC at 3 ug/ml incubated for 12 hrs by OD600 based analysis (reference value: 0.0390625 ug/ml); assay type: ADME, organism-based; settings: in vivo, dose 3 µg/ml
Klebsiella pneumoniae [25] = experiment: Hormesis activity against overnight compound-treated Klebsiella pneumoniae deficient in KmrA gene expression assessed as increase in antibiotic MIC by measuring hygromycinMIC at 3 ug/ml incubated for 12 hrs by OD600 based analysis (reference value: 12.5 ug/ml); assay type: ADME, organism-based; settings: in vivo, dose 3 µg/ml
Acinetobacter baumannii [26] = experiment: Hormesis activity against Acinetobacter baumannii assessed as increase in antibiotic MIC by measuring tetracycline MIC at 3 ug/ml incubated for 12 hrs by OD600 based analysis (reference value: 240 ug/ml); assay type: ADME, organism-based; settings: in vivo, dose 3 µg/ml
Klebsiella pneumoniae [27] = experiment: Hormesis activity against overnight compound-treated Klebsiella pneumoniae assessed as increase in antibiotic MIC by measuring streptomycin MIC at 3 ug/ml incubated for 12 hrs by OD600 based analysis (reference value: 0.78125 ug/ml); assay type: ADME, organism-based; settings: in vivo, dose 3 µg/ml
Klebsiella pneumoniae [28] = experiment: Hormesis activity against overnight compound-treated Klebsiella pneumoniae assessed as increase in antibiotic MIC by measuring meropenem MIC at 3 ug/ml incubated for 12 hrs by OD600 based analysis (reference value: 0.39625 ug/ml); assay type: ADME, organism-based; settings: in vivo, dose 3 µg/ml
Klebsiella pneumoniae [29] = experiment: Hormesis activity against Klebsiella pneumoniae deficient in KmrA gene expression assessed as increase in antibiotic MIC by measuring hygromycinMIC at 3 ug/ml incubated for 12 hrs by OD600 based analysis (reference value: 12.5 ug/ml); assay type: ADME, organism-based; settings: in vivo, dose 3 µg/ml

**Q.** For COc1ccc2cc3[n+](cc2c1OC)CCc1cc2c(cc1-3)OCO2 [BERBERINE], which MIC (Klebsiella pneumoniae [1]) is on record?
**A.** The MIC was 12.5 µg/mL.

**Q.** What about the Activity (Enterobacter cloacae [2]) of the same molecule?
**A.** Its Activity is “Toxic”.

**Q.** And the MIC (Klebsiella pneumoniae [3])?
**A.** Its MIC is 6.25 µg/mL.

**Q.** What about the Activity (Klebsiella pneumoniae [4]) of the same molecule?
**A.** Its Activity is “Non-Toxic”.

**Q.** What about the MIC (Enterobacter cloacae [5]) of the same molecule?
**A.** Its MIC is 3.125 µg/mL.

**Q.** And the Activity (Klebsiella pneumoniae [6])?
**A.** Its Activity is “Toxic”.

**Q.** What about the MIC (Enterobacter cloacae [7]) of the same molecule?
**A.** The MIC was 12.5 µg/mL.

**Q.** And the MIC (Klebsiella pneumoniae [8])?
**A.** The MIC was 12.5 µg/mL.

**Q.** And the MIC (Enterobacter cloacae [9])?
**A.** The MIC was 6.25 µg/mL.

**Q.** What about the “fold change (FC)” value [10] of the same molecule?
**A.** The value was 2.5.

**Q.** And the MIC (Klebsiella pneumoniae [11])?
**A.** The MIC was 0.3962 µg/mL.

**Q.** What about the Activity (Klebsiella pneumoniae [12]) of the same molecule?
**A.** The Activity was “Non-Toxic”.

**Q.** What about the MIC (Acinetobacter baumannii [13]) of the same molecule?
**A.** Its MIC is 250 µg/mL.

**Q.** And the Activity (Enterobacter cloacae [14])?
**A.** The Activity was “Toxic”.

**Q.** What about the MIC (Klebsiella pneumoniae [15]) of the same molecule?
**A.** The MIC was 12.5 µg/mL.

**Q.** What about the MIC (Klebsiella pneumoniae [16]) of the same molecule?
**A.** Its MIC is 0.7812 µg/mL.

**Q.** And the MIC (Klebsiella pneumoniae [17])?
**A.** The MIC was 25 µg/mL.

**Q.** What about the MIC (Acinetobacter baumannii [18]) of the same molecule?
**A.** Its MIC is 200 µg/mL.

**Q.** What about the MIC (Acinetobacter baumannii [19]) of the same molecule?
**A.** Its MIC is 12.5 µg/mL.

**Q.** And the MIC (Acinetobacter baumannii [20])?
**A.** The MIC was 250 µg/mL.

**Q.** And the MIC (Enterobacter cloacae [21])?
**A.** Its MIC is 3.125 µg/mL.

**Q.** And the MIC (Enterobacter cloacae [22])?
**A.** Its MIC is 25 µg/mL.

**Q.** What about the Activity (Acinetobacter baumannii [23]) of the same molecule?
**A.** The Activity was “Non-Toxic”.

**Q.** And the MIC (Enterobacter cloacae [24])?
**A.** The MIC was 0.1562 µg/mL.

**Q.** What about the MIC (Klebsiella pneumoniae [25]) of the same molecule?
**A.** The MIC was 12.5 µg/mL.

**Q.** And the MIC (Acinetobacter baumannii [26])?
**A.** The MIC was 240 µg/mL.

**Q.** What about the MIC (Klebsiella pneumoniae [27]) of the same molecule?
**A.** Its MIC is 3.125 µg/mL.

**Q.** What about the MIC (Klebsiella pneumoniae [28]) of the same molecule?
**A.** The MIC was 0.3962 µg/mL.

**Q.** And the MIC (Klebsiella pneumoniae [29])?
**A.** The MIC was 12.5 µg/mL.
